{"source": "paper PMC6591251", "about": "“Discovery of potent necroptosis inhibitors targeting RIPK1 kinase activity for the treatment of inflammatory disorder and cancer metastasis” (Cell Death & Disease, 2019)", "key": {"HT-29 cells": {"tested_on": "HT-29 cells", "test": "TNF-induced necroptosis (TNFα/Smac mimetic/z-VAD), cell viability by ATP levels", "format": "cell-based, human", "conditions": "Homo sapiens, HT-29, 48 h, T/S/Z 48 h, read-out: EC50(nM) HT-29", "experimental": "(§1) Necroptosis is tightly regulated by RIP kinases including RIPK1 and RIPK3. To develop new necroptosis inhibitors, we screened a small-molecule library of around 240 potential kinase inhibitors that were designed with novel structures to affect the ATP-binding pocket of protein kinases. Human colon cancer HT-29 cells were treated with these compounds for […], followed by treatment with necroptotic stimuli (TNFα, Smac mimetic, and z-VAD) that are known to activate TNF-mediated necroptosis. After 48 h, cell viability was analyzed by monitoring ATP levels.\n(§2) Fig. 1 PK6 efficiently blocks TNF-α induced necroptosis in both human and mouse cells. a HT-29 cells cultured in 96-well plates were pretreated with the indicated compounds (10 μM) from a library consisting of ~240 compounds that we designed with novel structures for 1 h and subsequently treated with 40 ng/ml TNF-α (T), 100 nM Smac mimetic (S), and the caspase inhibitor 20 μM z-VAD(Z) for 48 h. Cell viability was assessed by measuring ATP levels. Data are represented as the mean ± standard deviation of duplicates. b Chemical structure of PK6. c Dose response curve and EC50 ± SD value for PK6 in TNF-α induced necroptosis in HT-29 cells. Cells were pretreated with indicated concentrations of PK6 for 1 h prior to the treatment with T (40 ng/ml), S (100 nM), and Z (20 μM) for 48 h. Cell viability was assessed by measuring ATP levels. d U937 cells were pretreated with indicated concentrations of PK6 for 1 h followed by the treatment with T (40 ng/ml), S (100 nM), and Z (20 μM) for 24 h. e MEF cells were pretreated with indicated concentrations of PK6 for 1 h followed by the treatment with T (40 ng/ml), S (100 nM), and Z (20 μM) for 24 h. f L929 cells were pretreated with indicated concentrations of PK6 for 1 h prior to the treatment with S (100 nM) and Z (20 μM) for 24 h.\n(§3) Fig. 2 Chemical optimization of PK6 leads to improvements in anti-necroptotic activity. a, b The effects of the indicated compounds on cell viability were examined in HT-29 cells (a) and L929 cells (b). HT-29 cells were treated as indicate for 48 h and L929 cells for 24 h. Cell viability was assessed by measuring ATP levels. Data are represented as the mean ± standard deviation of triplicates. c Structure and EC50 ± SD value of each compound are shown in the table. EC50 values are the average of at least two independent determinations. d Lead optimization of PK6 TEXT PRINTED IN THE PICTURE: (c) PK6: EC50(nM) HT-29: 1200±53; EC50(nM) L929: 760±26 | (c) PK67: EC50(nM) HT-29: 250±6.3; EC50(nM) L929: 130±6.8 | (c) PK81: EC50(nM) HT-29: 120±7.6; EC50(nM) L929: 20±0.98 | (c) PK84: EC50(nM) HT-29: 97±6.7; EC50(nM) L929: 45±2.1 | (c) PK93: EC50(nM) HT-29: 130±36; EC50(nM) L929: 30±7.4 | (c) PK86: EC50(nM) HT-29: 73±3.9; EC50(nM) L929: 15±1.0 | (c) PK68: EC50(nM) HT-29: 23±1.4; EC50(nM) L929: 13±0.85\n(§4) The cell viability was analyzed by using the CellTiter-Glo Luminescent Cell Viability Assay kit following the manufacturer’s instructions (Promega). Luminescence was measured with SpectraMax i3x (Molecular Devices)."}, "L929 cells": {"tested_on": "L929 cells", "test": "TNF-induced necroptosis, cell viability by ATP levels", "format": "cell-based", "conditions": "Mus musculus, L929, 24 h, read-out: EC50(nM) L929", "experimental": "as §1, §2, §3, §4"}, "HeLa-MLKL (1–190) cells": {"tested_on": "HeLa-MLKL (1–190) cells", "test": "MLKL dimerization-induced cell death (AP20187)", "format": "cell-based, human", "conditions": "AP20187 100 nM, 24 h", "experimental": "(§5) Recombinant proteins were incubated with PK6 and PK68 as indicated. […] NIH3T3-RIPK3 cells were pretreated with indicated compounds for 1 h and subsequently treated with T (40 ng/ml)/S (100 nM)/Z (20 μM) or AP20187 (100 nM) for 24 h. Cell viability was determined by measuring ATP levels. e PK6 and PK68 have no effect on MLKL dimerization-induced cell death in HeLa-MLKL (1–190) cells that stably express MLKL (1–190aa) fused to DmrB. HeLa-MLKL (1–190) cells were pretreated with indicated compounds for 1 h and subsequently treated with AP20187 (100 nM) for 24 h. Cell viability was determined by measuring ATP levels.\n(§6) Further, we evaluated the selectivity of PK68 against a panel of 369 kinases provided by Reaction Biology (at 1000 nM). […] In addition, we followed on some of the active “hits” from the kinome scan. PK68 was tested against TNIK and TRKA by a reputable CRO company. […] RIPK1 is known to mediate NF-κB activation independently of its kinase activity. […] It has been shown that homodimerization of RIPK3 or MLKL induced by the dimerizer leads to necroptosis bypassing the upstream signals[10],[37]. […] This dimerized RIPK3-induced necroptosis was blocked by RIPK3 inhibitor GSK873 but was not blocked by the RIPK1 inhibitor necrostatin-1. […] (Fig. 4e).\nas §4"}, "NIH3T3-RIPK3 cells": {"tested_on": "NIH3T3-RIPK3 cells", "test": "RIPK3 dimerization-induced necroptosis (AP20187)", "format": "cell-based, mouse", "conditions": "AP20187 100 nM, 24 h", "experimental": "as §5, §6, §4"}, "[1]": {"tested_on": "B16-F10 or RFP-LL/2 cells", "test": "Proliferation rate and invasion ability without endothelial monolayer", "format": "cell-based, mouse", "conditions": "B16-F10 or RFP-LL/2, in vitro", "experimental": "Studies have shown that RIPK1 kinase activity is involved in the promotion of tumor metastasis through death receptor 6-dependent necroptosis of endothelial cells[22] or VEGF-dependent activation of vascular permeability. We thus evaluated the therapeutic effect of PK68 on lung metastasis of mouse melanoma B16-F10 cells in vivo. […] After 2 weeks, the metastasis of B16-F10 cells was measured by histological analysis and assessed as the number of metastasis nodules in the lung. […] Two weeks after intravenous injection of RFP-LL/2 cells, RFP^+ LL/2 cells were isolated from the tumor tissues by flow cytometer sorting and no signal of phosphorylated RIPK1 was detected in these tumors cells (Supplementary Fig. 22). Six hours after intravenous injection of RFP-LL/2 cells into C57BL/6 mice, the RFP-LL/2 cells have extravasated through blood vessels into the lung (Supplementary Fig. 23). […] Further, we evaluated the effect of PK68 on the tumor cell transmigration across the cultured endothelium. We isolated CD31^+ endothelial cells from the lungs and performed the transendothelial migration assay as previously reported. […]\n(A-B) B16-F10 and RFP-LL/2 cells were pretreated with indicated compounds for 1h and then cell viability was measured by cell Titer-Glo. (C) B16-F10 and RFP-LL/2 cells were pre-treated with indicated compounds and invasion ability was measured by the transwell assay."}, "mouse and rat": {"tested_on": "mouse and rat", "parameters": "method as in PMID 27551444, PMID 28151659", "conditions": "cited from earlier work"}, "human cells": {"tested_on": "human cells", "parameters": "method as in PMID 27551444, PMID 28151659", "conditions": "cited from earlier work"}}}
{"smiles": "CC(=O)Nc1nc2ccc(-c3cnc(C)c(NC(=O)OC4CCCC4)c3)cc2s1", "note": "[PK81, cyclopentyl (5-(2-acetamidobenzo[d]thiazol-6-yl)-2-methylpyridin-3-yl)carbamate]", "values": [{"measurement": "EC50", "setting": "HT-29 cells", "value": "120 ± 7.6", "unit": "nM"}, {"measurement": "melting point", "value": "246 to 247 °C (dec.)"}, {"measurement": "EC50", "setting": "L929 cells", "value": "20 ± 0.98", "unit": "nM"}]}
{"smiles": "CC(=O)Nc1nc2ccc(-c3cnc(C)c(NC(=O)CC4CCCCC4)c3)cc2s1", "note": "[PK67, N-(5-(2-acetamidobenzo[d]thiazol-6-yl)-2-methylpyridin-3-yl)-2-cyclohexylacetamide]", "values": [{"measurement": "EC50", "setting": "HT-29 cells", "value": 250, "unit": "nM"}, {"measurement": "EC50", "setting": "L929 cells", "value": 130, "unit": "nM"}]}
{"smiles": "COc1nccnc1NS(=O)(=O)c1ccc(NC(=O)/C=C/c2ccc([N+](=O)[O-])s2)cc1", "note": "[necrosulfonamide, reference compound]", "values": [{"measurement": "polymerized MLKL-induced necroptosis", "setting": "HeLa-MLKL (1–190) cells", "value": "effectively suppressed"}]}
{"smiles": "CN1C(=O)C(Cc2c[nH]c3ccccc23)NC1=S", "note": "(stereo not drawn) [necrostatin-1, Necrostatin-1, reference compound]", "values": [{"measurement": "RIPK3 dimerization-induced necroptosis", "setting": "NIH3T3-RIPK3 cells", "value": "not blocked"}]}
{"smiles": "CN1C(=O)NC(Cc2c[nH]c3c(Cl)cccc23)C1=O", "note": "(stereo not drawn) [Nec-1s, 7-Cl-O-Nec-1, reference compound]", "values": [{"measurement": "proliferation rate and invasion ability", "setting": "[1]", "value": "no obvious influence"}]}
{"smiles": "CC(=O)Nc1nc2ccc(-c3cnc(C)c(NC(=O)OC4CCCCC4)c3)nc2s1", "note": "[PK93, cyclohexyl (5-(2-acetamidothiazolo[5,4-b]pyridin-5-yl)-2-methylpyridin-3-yl)carbamate]", "values": [{"measurement": "EC50", "setting": "HT-29 cells", "value": "130 ± 36", "unit": "nM"}, {"measurement": "melting point", "value": "230 to 231 °C (dec.)"}, {"measurement": "EC50", "setting": "L929 cells", "value": "30 ± 7.4", "unit": "nM"}]}
{"smiles": "CN1C(=O)[C@@H](NC(=O)c2n[nH]c(Cc3ccccc3)n2)COc2ccccc21", "note": "[GSK2982772]", "values": [{"measurement": "cellular efficacy in mouse and rat", "setting": "mouse and rat", "value": "highly reduced cellular efficacy"}, {"measurement": "potency in human cells", "setting": "human cells", "value": "extremely potent"}]}
{"smiles": "CC(=O)Nc1nc2ccc(-c3cc(NC(=O)OC4CCCCC4)c(C)cn3)cc2s1", "note": "[PK86, cyclohexyl (2-(2-acetamidobenzo[d]thiazol-6-yl)-5-methylpyridin-4-yl)carbamate]", "values": [{"measurement": "EC50", "setting": "HT-29 cells", "value": "73 ± 3.9", "unit": "nM"}, {"measurement": "melting point", "value": "227 to 228", "unit": "°C"}, {"measurement": "EC50", "setting": "L929 cells", "value": "15 ± 1", "unit": "nM"}]}
{"smiles": "CC(=O)Nc1cn2cc(-c3cnc(C)c(NC(=O)OC4CCCCC4)c3)ccc2n1", "note": "[PK84, cyclohexyl (5-(2-acetamidoimidazo[1,2-a]pyridin-6-yl)-2-methylpyridin-3-yl)carbamate]", "values": [{"measurement": "EC50", "setting": "HT-29 cells", "value": "97 ± 6.7", "unit": "nM"}, {"measurement": "melting point", "value": "268 to 269 °C (dec.)"}, {"measurement": "EC50", "setting": "L929 cells", "value": "45 ± 2.1", "unit": "nM"}]}
{"smiles": "CC(C)(C)C(=O)N1N=CC[C@H]1c1ccccc1", "note": "[GSK963]", "values": [{"measurement": "cellular efficacy in mouse and rat", "setting": "mouse and rat", "value": "highly reduced cellular efficacy"}, {"measurement": "potency in human cells", "setting": "human cells", "value": "extremely potent"}]}
